“Also recorded” adds a separate entry of the source. Read-outs that look alike come from different tables or passages of the source.
Assays:
[1] = target: rhMMP-12 (Homo sapiens, UniProt P39900); assay: MMP inhibition assay, fluorogenic substrate cleavage (Ki)
Protocol: (§1) MMPs were purchased from R&D Systems (Minneapolis, Minn.). MMP inhibition assays were carried out in 50 mM Tris/HCl buffer, pH=6.8, 10 mM CaCl2 at 25° C. […] Titration experiments were carried out to determine active enzyme concentration for each MMP prior to the assay. For each probe, the % of inhibition was determined from five different concentrations in triplicates, chosen to reach a range of 20-80% inhibition.
(§2) The recombinant human MMPs including rhMMP-2, rhMMP-9, and rhMMP-12 obtained from R&D Systems (Minneapolis, Minn., USA) were activated by 1 mM p-aminophenylmercuric acetate (APMA, Sigma) at 37° C. for certain hours according to the manufacturer's instructions. The activated MMPs were diluted in the assay buffer consisting of 50 mM Tris, 10 mM CaCl2, 150 mM NaCl, 0.05% Brij-35 (w/v), pH 7.5 (TCNB). The assays were carried out in 96-well non-binding surface black microplates (Fisher Scientific).
(§3) The solutions were incubated at room temperature for 20 min. 10 μL of the fluorogenic MMP substrate i.e. Mca-KPLGL-Dpa-AR-NH2 (R&D Systems) at 4 different concentrations (such as 50.0 μM, 40.0 μM, 30.0 μM, and 20.0 μM) in assay buffer were added before starting the fluorescence measurements. The kinetics (v) of fluorescence changes were measured at excitation and emission wavelengths of 320 nm and 405 nm for 30 min (1.44 min intervals, sensitivity 100, shaking intensity 4, duration 30 s) by a fluorescent plate reader (BIO-TEK/Synergy HT). The inhibition constants (Ki) of the inhibitor with MMPs were calculated from the mean velocity values using GraphPad Prism 6 by the equation:

[2] = target: rhMMP-9 (Homo sapiens, UniProt P14780); assay: as above
Protocol: (§4) MMP inhibition assays were carried out in 50 mM Tris/HCl buffer, pH=6.8, 10 mM CaCl2 at 25° C. […] Titration experiments were carried out to determine active enzyme concentration for each MMP prior to the assay.
as §2
(§5) The solutions were incubated at room temperature for 20 min. 10 μL of the fluorogenic MMP substrate i.e. Mca-KPLGL-Dpa-AR-NH2 (R&D Systems) at 4 different concentrations (such as 50.0 μM, 40.0 μM, 30.0 μM, and 20.0 μM) in assay buffer were added before starting the fluorescence measurements. […] The inhibition constants (Ki) of the inhibitor with MMPs were calculated from the mean velocity values using GraphPad Prism 6 by the equation:

[3] = target: T1, rhMMP-2 (Homo sapiens, UniProt P08253); assay: as above
T1 sequence (P08253 110-660): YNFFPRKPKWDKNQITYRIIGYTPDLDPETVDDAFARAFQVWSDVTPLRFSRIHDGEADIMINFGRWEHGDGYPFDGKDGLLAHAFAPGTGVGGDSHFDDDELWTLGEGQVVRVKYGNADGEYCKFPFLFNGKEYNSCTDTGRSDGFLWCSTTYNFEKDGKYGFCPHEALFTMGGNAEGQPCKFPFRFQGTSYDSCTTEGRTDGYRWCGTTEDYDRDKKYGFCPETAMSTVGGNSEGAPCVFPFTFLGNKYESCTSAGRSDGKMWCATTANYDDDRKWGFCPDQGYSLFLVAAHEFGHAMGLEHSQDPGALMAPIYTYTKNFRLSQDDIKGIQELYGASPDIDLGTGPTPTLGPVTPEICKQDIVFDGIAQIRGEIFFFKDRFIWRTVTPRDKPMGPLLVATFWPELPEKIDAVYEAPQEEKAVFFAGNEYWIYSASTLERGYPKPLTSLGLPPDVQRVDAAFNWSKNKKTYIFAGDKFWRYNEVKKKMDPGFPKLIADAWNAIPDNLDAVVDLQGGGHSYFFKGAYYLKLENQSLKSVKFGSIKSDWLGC
Protocol: as §4, §2, §5

[4] = target: T2, rhMMP-7 (Homo sapiens, UniProt P09237); assay: as above; conditions: read-out: Ki rhMMP-7; mean ± SE
T2 sequence (P09237 95-267): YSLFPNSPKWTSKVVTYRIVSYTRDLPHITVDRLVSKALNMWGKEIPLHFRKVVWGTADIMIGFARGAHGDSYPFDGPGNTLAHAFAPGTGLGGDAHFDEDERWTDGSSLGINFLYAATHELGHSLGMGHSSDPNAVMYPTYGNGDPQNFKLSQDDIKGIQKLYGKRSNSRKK
Protocol: as §1, §2, §3

[5] = Aqueous solubility; assay type: physicochemical
[6] = target: rhMMP-13 (Homo sapiens, UniProt P45452); assay: MMP inhibition assay, fluorogenic substrate cleavage (Ki); conditions: read-out: Ki rhMMP-13; mean ± SE
Protocol: as §1, §2, §3

[7] = tested on: rhMMPs; assay: In vitro MMP binding screens (panel); conditions: several MMPs
Protocol: as §1, §2, §3

[8] = read-out: Ki rhMMP-12, mean ± SE
[9] = read-out: Ki rhMMP-9, mean ± SE
[10] = read-out: Ki rhMMP-2, mean ± SE

Chain of rhMMP-12 (P39900 106-470): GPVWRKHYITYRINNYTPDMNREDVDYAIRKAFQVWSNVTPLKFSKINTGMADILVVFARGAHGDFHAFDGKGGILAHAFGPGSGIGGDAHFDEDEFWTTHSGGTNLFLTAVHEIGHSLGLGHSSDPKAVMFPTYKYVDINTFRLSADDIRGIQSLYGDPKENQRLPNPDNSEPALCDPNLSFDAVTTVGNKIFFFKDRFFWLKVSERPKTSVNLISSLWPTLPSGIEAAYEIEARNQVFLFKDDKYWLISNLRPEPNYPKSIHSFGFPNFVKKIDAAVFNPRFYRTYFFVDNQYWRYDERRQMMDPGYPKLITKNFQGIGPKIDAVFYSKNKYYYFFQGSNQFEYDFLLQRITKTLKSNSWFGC
Chain of rhMMP-9 (P14780 107-707 limits assumed): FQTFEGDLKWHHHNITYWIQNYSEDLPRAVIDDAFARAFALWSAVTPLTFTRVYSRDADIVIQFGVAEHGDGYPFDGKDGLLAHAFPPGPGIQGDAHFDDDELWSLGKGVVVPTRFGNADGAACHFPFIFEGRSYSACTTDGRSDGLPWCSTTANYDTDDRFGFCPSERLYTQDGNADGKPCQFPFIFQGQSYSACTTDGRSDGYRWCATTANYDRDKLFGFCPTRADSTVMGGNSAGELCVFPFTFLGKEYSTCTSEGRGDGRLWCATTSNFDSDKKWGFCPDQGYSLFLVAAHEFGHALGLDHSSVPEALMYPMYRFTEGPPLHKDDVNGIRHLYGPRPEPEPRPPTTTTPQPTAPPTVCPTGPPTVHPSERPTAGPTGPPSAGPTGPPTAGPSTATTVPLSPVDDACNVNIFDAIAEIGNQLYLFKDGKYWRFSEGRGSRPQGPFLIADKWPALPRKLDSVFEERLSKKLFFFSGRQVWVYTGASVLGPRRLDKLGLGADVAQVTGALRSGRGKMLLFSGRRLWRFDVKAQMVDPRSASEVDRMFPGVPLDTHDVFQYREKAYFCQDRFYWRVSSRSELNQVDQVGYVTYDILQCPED

SMILES | Ki [1] [nM] | Ki [2] [nM] | Ki [3] [nM] | Ki [4] [nM] | water solubility (in words) [5] | Ki [6] [nM] | MMP binding / inhibition constants (in words) [7] | affinity for rhMMP-12 (in words) [1] | Ki [1, 8] [nM] | affinity for rhMMP-9 (in words) [2] | Ki [2, 9] [nM] | affinity for rhMMP-2 (in words) [3] | Ki [3, 10] [nM]
CC(C)C[C@H]1C(=O)N[C@H](C(=O)O)Cc2ccc(cc2)OCCC[C@@H]1C(=O)NO [Compound 20, (6S,7R,10S)-6-(hydroxycarbamoyl)-7-isobutyl-8-oxo-2-oxa-9-aza-1(1,4)-benzenacycloundecaphane-10-carboxylic acid] | 1.7 ± 0.2 | 60.6 ± 11 | 101 ± 12.2 | – | – | – | – | – | – | – | – | – | –
CC(C)CC1C(=O)NC(C(=O)NC(CCCNC(=N)N)C(=O)NCCNC(=O)c2ccc(NN)nc2)Cc2ccc(cc2)OCCCC1C(=O)NO [Compound 1, (6S,7R,10S)—N^10—((S)-5-guanidino-1-((2-(6-hydrazinylnicotinamido)ethyl)amino)-1-oxopentan-2-yl)-N^6-hydroxy-7-isobutyl-8-oxo-2-oxa-9-aza-1(1,4)-benzenacycloundecaphane-6,10-dicarboxamide] | – | – | – | 33.2 ± 5 | good aqueous solubility; also recorded: good water solubility | 16.9 ± 2.7 | MMP binding profiles similar to the RP805 precursor; also recorded: nanomolar range inhibition constants | high affinity | 2.2 ± 0.5 | high affinity | 17.4 ± 2.1 | high affinity | 10.4
CNC(=O)[C@H](Cc1c[nH]c2ccccc12)NC(=O)[C@@H](CC(=O)NO)CC(C)C [GM-6001, reference compound] | 0.57 | – | – | 0.4 | – | 0.3 | – | – | – | – | – | – | –
CNC(=O)[C@H](CCCNC(=N)N)NC(=O)[C@@H]1Cc2ccc(cc2)OCCC[C@H](C(=O)NO)[C@@H](CC(C)C)C(=O)N1 [Compound 19, (6S,7R,10S)—N10-((S)-5-guanidino-1-(methylamino)-1-oxopentan-2-yl)-N6-hydroxy-7-isobutyl-8-oxo-2-oxa-9-aza-1(1,4)-benzenacycloundecaphane-6,10-dicarboxamide] | – | – | – | 17.1 ± 0.1 | – | 15.3 ± 5.4 | MMP binding profiles similar to the RP805 precursor | – | 1 ± 0.2 | – | 20.4 ± 2 | – | 5.8 ± 0.4
CC(C)CC1C(=O)NC(C(=O)NCCOCCOCCOCCF)Cc2ccc(cc2)OCCCC1C(=O)NO [Compound 17, (6S,7R,10S)—N10-(2-(2-(2-(2-fluoroethoxy)ethoxy)ethoxy)ethyl)-N^6-hydroxy-7-isobutyl-8-oxo-2-oxa-9-aza-1(1,4)-benzenacycloundecaphane-6,10-dicarboxamide] | – | – | – | – | – | – | – | – | 2.1 ± 0.3 | – | 8.8 ± 0.8 | – | 8.6 ± 1.3

Reference: patent US11286251B2, “Matrix metalloproteinase inhibitors and imaging agents, and methods using same” (Yale University, priority 2016, dated 2022)
